In PubChem BioAssay AID330 (DTP/NCI, 2004):
Where “and” joins values, the source holds several entries; their conditions need not be identical. Identical values can stand only once. Toxic doses and inconclusive results are not listed. Peptide text beside a SMILES is read from it.

Test system: P388 leukemia ip, CD2F1 mice, survival T/C
Assay: NCI In Vivo Anticancer Drug Screen. Data for tumor model P388 Leukemia (intraperitoneal) in CD2F1 (CDF1) mice
Conditions: endpoint: median survival time, higher = longer survival
Description: The antitumor activity of compounds was measured in mice bearing transplantable tumors. Survival or tumor size were measured and the results are expressed as the measurement made in the treated group (T) divided by the measurement made in the vehicle treated control group (C). The tumor model used in this assay is P388 Leukemia (intraperitoneal) in CD2F1 (CDF1) mice

[1] = dose: 100.0 mg/kg/injection, schedule: Q04DX003 (ip), vehicle: saline with Tween-80
[2] = dose: 200.0 mg/kg/injection, schedule: Q04DX003 (ip), vehicle: saline with Tween-80
[3] = dose: 50.0 mg/kg/injection, schedule: Q01DX005 (ip), vehicle: Klucel (hydroxypropylcellulose) (HPC)
[4] = dose: 100.0 mg/kg/injection, schedule: Q01DX005 (ip), vehicle: Klucel (hydroxypropylcellulose) (HPC)
[5] = dose: 200.0 mg/kg/injection, schedule: Q01DX005 (ip), vehicle: Klucel (hydroxypropylcellulose) (HPC)
[6] = dose: 25.0 mg/kg/injection, schedule: Q01DX009 (ip), vehicle: saline with Tween-80
[7] = dose: 50.0 mg/kg/injection, schedule: Q01DX009 (ip), vehicle: saline with Tween-80
[8] = dose: 200.0 mg/kg/injection, schedule: Q01DX009 (ip), vehicle: saline with Tween-80
[9] = dose: 50.0 mg/kg/injection, schedule: Q01DX009 (ip), vehicle: Klucel (hydroxypropylcellulose) (HPC)
[10] = dose: 100.0 mg/kg/injection, schedule: Q01DX009 (ip), vehicle: Klucel (hydroxypropylcellulose) (HPC)
[11] = dose: 200.0 mg/kg/injection, schedule: Q01DX009 (ip), vehicle: Klucel (hydroxypropylcellulose) (HPC)

SMILES: O=c1ccnc(Sc2ccc([N+](=O)[O-])cc2[N+](=O)[O-])[nH]1
- T/C [1]: 99 % of control
- T/C [2]: 99 % of control

SMILES: COc1ccc2c(N=[N+]=[N-])cc(C)nc2c1
- T/C (dose: 30.0 mg/kg/injection, schedule: Q01DX005 (ip), vehicle: saline with Tween-80): 97 % of control
- T/C (dose: 60.0 mg/kg/injection, schedule: Q01DX005 (ip), vehicle: saline with Tween-80): 100 % of control and 91 % of control

SMILES: CC(=O)NC(C(=O)O)C(C)(C)S (stereo unspecified)
- T/C [3]: 100 % of control
- T/C [4]: 100 % of control
- T/C [5]: 95 % of control

SMILES: O=C(C[n+]1cc2ccccc2cc1/C=N/O)c1ccccc1
- T/C (dose: 50.0 mg/kg/injection, schedule: Q01DX009 (ip), vehicle: saline sonified): 100 % of control
- T/C (dose: 100.0 mg/kg/injection, schedule: Q01DX009 (ip), vehicle: saline sonified): 100 % of control
- T/C (dose: 200.0 mg/kg/injection, schedule: Q01DX009 (ip), vehicle: saline sonified): 86 % of control

SMILES: [NH-]CC(=O)O.[NH-]CC(=O)O.[Pt+2]
- T/C (dose: 3.13 mg/kg/injection, schedule: Q01DX009 (ip), vehicle: water): 97 % of control
- T/C (dose: 6.25 mg/kg/injection, schedule: Q01DX009 (ip), vehicle: distilled water + Tween-80): 119 % of control
- T/C (dose: 6.25 mg/kg/injection, schedule: Q01DX009 (ip), vehicle: water): 90 % of control and 112 % of control
- T/C (dose: 12.5 mg/kg/injection, schedule: Q01DX009 (ip), vehicle: distilled water + Tween-80): 111 % of control
- T/C (dose: 12.5 mg/kg/injection, schedule: Q01DX009 (ip), vehicle: water): 106 % of control and 110 % of control
- T/C (dose: 25.0 mg/kg/injection, schedule: Q01DX009 (ip), vehicle: water): 100 % of control and 112 % of control
- T/C (dose: 50.0 mg/kg/injection, schedule: Q01DX009 (ip), vehicle: distilled water + Tween-80): 119 % of control
- T/C (dose: 50.0 mg/kg/injection, schedule: Q01DX009 (ip), vehicle: water): 97 % of control
- T/C (dose: 100.0 mg/kg/injection, schedule: Q01DX009 (ip), vehicle: distilled water + Tween-80): 115 % of control
- T/C (dose: 100.0 mg/kg/injection, schedule: Q01DX009 (ip), vehicle: water): 97 % of control
- T/C (dose: 200.0 mg/kg/injection, schedule: Q01DX009 (ip), vehicle: distilled water + Tween-80): 98 % of control

SMILES: CS(=O)(=O)Nc1ccc(Nc2c3ccccc3nc3cc(N)ccc23)cc1
- T/C (dose: 1.32 mg/kg/injection, schedule: Q04DX003 (ip), vehicle: saline): 154 % of control
- T/C (dose: 1.78 mg/kg/injection, schedule: Q04DX003 (ip), vehicle: saline): 167 % of control
- T/C (dose: 2.0 mg/kg/injection, schedule: Q04DX003 (ip), vehicle: saline): 172 % of control
- T/C (dose: 2.66 mg/kg/injection, schedule: Q04DX003 (ip), vehicle: saline): 158 % of control
- T/C (dose: 2.9 mg/kg/injection, schedule: Q04DX003 (ip), vehicle: saline): 187 % of control
- T/C (dose: 3.0 mg/kg/injection, schedule: Q04DX003 (ip), vehicle: saline): 181 % of control
- T/C (dose: 4.0 mg/kg/injection, schedule: Q04DX003 (ip), vehicle: saline): 155 % of control
- T/C (dose: 4.4 mg/kg/injection, schedule: Q04DX003 (ip), vehicle: saline): 204 % of control
- T/C (dose: 4.5 mg/kg/injection, schedule: Q04DX003 (ip), vehicle: saline): 163 % of control
- T/C (dose: 6.0 mg/kg/injection, schedule: Q04DX003 (ip), vehicle: saline): 192 % of control
- T/C (dose: 6.6 mg/kg/injection, schedule: Q04DX003 (ip), vehicle: saline): 212 % of control
- T/C (dose: 10.0 mg/kg/injection, schedule: Q04DX003 (ip), vehicle: saline): 112 % of control

SMILES: Cc1ccccc1C1OC2=C(Nc3ccccc3N2)C1=O (stereo unspecified)
- T/C (dose: 60.0 mg/kg/injection, schedule: Q01DX005 (ip), vehicle: Klucel (hydroxypropylcellulose) (HPC)): 99 % of control
- T/C (dose: 120.0 mg/kg/injection, schedule: Q01DX005 (ip), vehicle: Klucel (hydroxypropylcellulose) (HPC)): 101 % of control
- T/C (dose: 240.0 mg/kg/injection, schedule: Q01DX005 (ip), vehicle: Klucel (hydroxypropylcellulose) (HPC)): 92 % of control

SMILES: O=C(Nc1ccc([N+](=O)[O-])cc1)N1CCOCC1
- T/C (dose: 12.5 mg/kg/injection, schedule: Q01DX009 (ip), vehicle: saline with Tween-80): 97 % of control
- T/C [6]: 89 % of control
- T/C [7]: 86 % of control and 92 % of control
- T/C [8]: 88 % of control

SMILES: O=C1C=CC(=O)C(c2ccccc2)=C1
- T/C [3]: 100 % of control
- T/C [4]: 105 % of control
- T/C [5]: 112 % of control

SMILES: C1CC[N-]CC1.C1CC[N-]CC1.[Cl][Cd][Cl]
- T/C (dose: 0.2 mg/kg/injection, schedule: Q01DX009 (ip), vehicle: water): 95 % of control
- T/C (dose: 0.39 mg/kg/injection, schedule: Q01DX009 (ip), vehicle: water): 96 % of control
- T/C (dose: 0.78 mg/kg/injection, schedule: Q01DX009 (ip), vehicle: other): 90 % of control
- T/C (dose: 0.78 mg/kg/injection, schedule: Q01DX009 (ip), vehicle: water): 98 % of control
- T/C (dose: 1.56 mg/kg/injection, schedule: Q01DX009 (ip), vehicle: other): 90 % of control
- T/C (dose: 3.13 mg/kg/injection, schedule: Q01DX009 (ip), vehicle: other): 93 % of control

SMILES: O=CNC(CSSCC(NC=O)C(=O)O)C(=O)O (stereo unspecified)
- T/C [3]: 101 % of control
- T/C [4]: 101 % of control
- T/C [1]: 113 % of control
- T/C [5]: 95 % of control
- T/C [2]: 90 % of control
- T/C (dose: 400.0 mg/kg/injection, schedule: Q04DX003 (ip), vehicle: saline with Tween-80): 90 % of control

SMILES: CCC(C)C(NC(=O)C(N)CC(C)C)C(=O)O (stereo not drawn) (H-Leu-Ile-OH; configuration not given here)
- T/C (dose: 60.0 mg/kg/injection, schedule: Q01DX005 (ip), vehicle: saline): 108 % of control
- T/C (dose: 120.0 mg/kg/injection, schedule: Q01DX005 (ip), vehicle: saline): 108 % of control
- T/C (dose: 240.0 mg/kg/injection, schedule: Q01DX005 (ip), vehicle: saline): 104 % of control

SMILES: N=c1c2ccccc2nc2n1CCCCC2
- T/C (dose: 25.0 mg/kg/injection, schedule: Q04DX003 (ip), vehicle: saline): 103 % of control
- T/C (dose: 50.0 mg/kg/injection, schedule: Q04DX003 (ip), vehicle: saline): 95 % of control

SMILES: COc1ccc(C(=O)OC2(C)CC(C)(C)N=[N+]2[O-])cc1 (stereo unspecified)
- T/C (dose: 12.5 mg/kg/injection, schedule: Q01DX009 (ip), vehicle: other): 108 % of control
- T/C (dose: 25.0 mg/kg/injection, schedule: Q01DX009 (ip), vehicle: other): 113 % of control
- T/C (dose: 50.0 mg/kg/injection, schedule: Q01DX009 (ip), vehicle: other): 115 % of control
- T/C (dose: 66.0 mg/kg/injection, schedule: Q01DX009 (ip), vehicle: other): 102 % of control
- T/C (dose: 100.0 mg/kg/injection, schedule: Q01DX009 (ip), vehicle: other): 100 % of control
- T/C (dose: 150.0 mg/kg/injection, schedule: Q01DX009 (ip), vehicle: other): 92 % of control
- T/C (dose: 200.0 mg/kg/injection, schedule: Q01DX009 (ip), vehicle: other): 113 % of control

SMILES: N#CCc1c(-c2ccccc2)c(-c2ccccc2)c2n1CCC2
- T/C [3]: 98 % of control
- T/C [4]: 99 % of control
- T/C [5]: 96 % of control

SMILES: CC(=O)Nc1ccc(O)c(CN2CCN(c3ccccc3)CC2)c1
- T/C [9]: 102 % of control
- T/C [10]: 103 % of control
- T/C [11]: 97 % of control

SMILES: C=CC(C)(C)C12CC3C(=O)N/C(=C\c4cnc[nH]4)C(=O)N3C1Nc1ccccc12 (stereo unspecified)
- T/C (dose: 6.25 mg/kg/injection, schedule: Q01DX009 (ip), vehicle: Klucel (hydroxypropylcellulose) (HPC)): 118 % of control and 97 % of control
- T/C (dose: 6.25 mg/kg/injection, schedule: Q01DX009 (ip), vehicle: saline with Tween-80): 86 % of control
- T/C (dose: 12.5 mg/kg/injection, schedule: Q01DX009 (ip), vehicle: Klucel (hydroxypropylcellulose) (HPC)): 116 % of control and 95 % of control
- T/C (dose: 25.0 mg/kg/injection, schedule: Q01DX009 (ip), vehicle: Klucel (hydroxypropylcellulose) (HPC)): 98 % of control and 106 % of control
- T/C [6]: 92 % of control
- T/C [9]: 106 % of control and 109 % of control
- T/C [7]: 100 % of control

SMILES: NC(Cc1c[nH]c2ccccc12)C(=O)O (stereo unspecified)
- T/C [9]: 99 % of control
- T/C [10]: 107 % of control
- T/C [11]: 104 % of control

SMILES: CC(=O)C(CO)C(=O)Nc1ccccc1 (stereo unspecified)
- T/C [7]: 100 % of control
- T/C (dose: 100.0 mg/kg/injection, schedule: Q01DX009 (ip), vehicle: saline with Tween-80): 95 % of control
- T/C [8]: 95 % of control
